From patent publication US7067551B2, “Deacetylase inhibitors” (Novartis AG, priority 2000, dated 2006)

Tests used:
[1] = system: HCT116 (colon tumor cell); test: Monolayer cell growth inhibition, MTS assay; type: cell-based; details: Homo sapiens, HCT-116, HCT116, 72 hours compound treatment, lactate salts
Text: (§1) Cell lines H1299 (human lung carcinoma cell) and HCT116 (colon tumor cell) are obtained from the American Type Culture Collection, Rockville, Md. The cell lines are free of Mycoplasma contamination (Rapid Detection System by Gen-Probe, Inc., San Diego, Calif.) and viral contamination (MAP testing by MA BioServices, Inc., Rockville, Md.). The cell lines are propagated and expanded in RPMI 1640 medium containing 10% heat-inactivated FBS (Life Technologies, Grand Island, N.Y.). Cell expansions for implantation are performed in cell factories (NUNC, purchased from Fisher Scientific, Springfield, N.J.). Cells are harvested at 50–90% confluency, washed once with HBSS (Hank's Balanced Salt Solution) containing 10% FBS, and suspended in 100% HBSS.
(§2) Cell proliferation is measured with a commercial MTS kit (Promega, Madision, Wis.) assay using an adaptation of published procedures, for example, that disclosed in Feasibility of drug screening with panels of human tumor cell lines using a microculture tetrazolium assay, Alley M C, et al., Cancer Res. 1988; 48:589–601. Cells are plated in 96-well tissue culture dishes, with top and bottom rows left empty. H1299 and HCT116 cells are suspended in complete media at a density of 5.3×10^3 and 3.6×10^3 cell/mL, respectively, and 190 μl are added per well. Each cell line is added to one half of the plate. Complete medium (200 μL) is added to the top and bottom rows. Twenty-four hours later, 10 μl of MTS solution is added to one of the plates to determine the activity at the time of compound addition (T0). The plate is incubated at 37° C. for 4 hours and the OD490 is measured on a Molecular Devices Thermomax at 490 nm using the Softmax program. The T0 plate serves as a reference for initial activity at the beginning of the experiment.
(§3) Five serial dilutions (1:4) of each compound are made in a 96-deep well plate with the highest concentrations on the edge of plate. Two cell lines are tested with two compounds per plate.0 Ten microliters of each of the five dilutions are added in triplicate and complete medium alone is added to columns six and seven. The plates are incubated at 37° C. for 72 hours. The MTS solution is added (as for the T0 plate) and read four hours later.
(§4) In order to analyze the data, the average background value (media alone) is subtracted from each experimental well; the triplicate values are averaged for each compound dilution. The following formulas are used to calculate percent growth.
The stock solution is diluted with 5% dextrose injection, USP, just prior to dosing.

[2] = system: A549 non-small cell lung human tumor cell line; test: A549 tumor xenograft in athymic mice, antitumor activity; type: in vivo; details: for Δ MEAN TUMOR VOLUME: ± SEM
Protocol: as §1, with “The A549 non-small cell” for “Cell lines H1299 (human”, “human” for “carcinoma cell) and HCT116 (colon”, “cell line is purchased” for “cell) are obtained”, “line is” for “lines are”, “HBSS” for “HBSS (Hank's Balanced Salt Solution)”
(§5) Outbred athymic (nu/nu) female mice (“Hsd:Athymic Nude-nu” from Harlan Sprague Dawley, Indianapolis, Ind.) are anesthetized with Metofane (Mallinckrodt Veterinary, Inc., Mundelein, Ill.), and 100 μL of the cell suspension containing 1×10^7 cells is injected subcutaneously into the right axillary (lateral) region of each animal. Tumors are allowed to grow for about 20 days until a volume of ˜100 mm^3 is achieved. At this point, mice bearing tumors with acceptable morphology and size are sorted into groups of eight for the study. The sorting process produces groups balanced with respect to mean and range of tumor size. Antitumor activity is expressed as % T/C, comparing differences in tumor volumes for treatment group (T) to vehicle control group (C).
(§6) CMD1 is administered intravenously, once daily 5×/week for three weeks, at doses of 10, 25, 50, or 100 mg/kg. The final DMSO concentration is 10%. Each test group has eight mice. Tumors are measured, and individual animal body weights recorded.
(§7) Example B3 repeated except CMD2 is used.

[3] = system: HDA partially purified from H1299 cells; test: HDA enzyme assay, 3H-acetate release from acetylated histone H4 peptide; type: biochemical, human; details: HDA partially purified from H1299, 37° C. 1.5 hr
Protocol: HDA is partially purified from H1299, human non-small cell lung carcinoma cells (obtained from American Type Culture Collection, 12301 Parklawn Drive, Rockville, Md. 20852, USA). Cells are grown to 70–80% confluence in RPMI media in the presence of 10% FCS, harvested and lysed by sonication. The lysate is centrifuged at 23,420 g for 10–15 min, the supernatant is applied to a Hiload 26/10 High performance Q-sepharose column (Amersham Pharmacia Biotech), and equilibrated with a buffer containing 20 mM Tris pH8.0, 1 mM EDTA, 10 mM NH4Cl2, 1 mM μ-Mercaptoethanol, 5% glycerol, 2 μg/mL aprotinin, 1 μg/mL leupeptin, and 400 mM PMSF. Proteins are eluted in 4 mL aliquots with a linear gradient from 0–500 mM NaCl in the above buffer at a flow rate of 2.5 mL/min. Each preparation of partially purified HDA enzyme is titrated to determine the optimal amount needed to obtain a signal to noise ratio of at least 5 to 1. […] The compounds are serially diluted in DMSO to generate stocks at 20-fold of the assay concentrations. Final concentrations of compounds in the assay are 10 μM, 2 μM, 400 nM, 80 nM, and 16 nM with the final percentage of DMSO in each enzyme reaction equaling 0.1%. Each concentration of compound is assayed in duplicate. The substrate used in the reaction is a peptide of amino acid sequence, [sequence], corresponding to the twenty-four N-terminal amino acids of human histone H4, biotinylated at the N-terminus and penta-acetylated, at each lysine residue with ^3H-acetate. To initiate the reaction, the substrate is diluted in 10 μL of Buffer A (100 mM Tris pH 8.0, 2 mM EDTA), added to the enzyme mixture and collected at the bottom of the deep well plate by centrifugation for 5 minutes at 1500 rpm. Following centrifugation, the mixture is incubated at 37° C. for 1.5 hr. The reaction is stopped by the addition of 20 μL of the Stop Buffer (0.5N HCl, 0.08M Acetic Acid). At this point, the assay proceeds to the robotic extraction phase or is frozen for several days at −80° C.
The extraction of enzymatically cleaved ^3H-acetate groups from the reaction mixture is achieved with the solvent TBME (t-butyl methyl ether) using the Tomtec Quadra 96 workstation. A program is written to add 200 μL of TBME to a 96 “deep well” plate. The workstation is programmed to aspirate 50 μL of air followed by 200 μL of TBME and finally another 25 μL of air, which is dispensed into the each well of the plate. The contents of the deep well were mixed thoroughly by pipetting 160 μL up and down 10 times. Before addition of TBME to the reaction mixture, it is necessary to “pre-wet” the pipette tips with TBME to prevent the solvent from dripping during the transfer to the deep well plate. The organic and aqueous phases in the deep well are separated by centrifugation at 1500 rpm for 5 min. Opti-Phase Supermix liquid scintillation cocktail (200 μL) (Wallac) is added to each well of the 96-well Trilux plate (Wallac). […] The Trilux plate is covered with clear film and read on a 1450 MicroBeta Trilux liquid scintillation and luminescence counter (Wallac) with a color/chemical quench and dpm correction.
In order to determine the IC50 values, the data are analyzed on a spreadsheet. The analysis requires a correction for the background luminescence that is accomplished by subtracting the dpm values of wells without ^3H substrate from the experimental wells. […]

A549 = test: Annexin V / propidium iodide staining (apoptosis), fluorescence microscopy; type: cell-based, human; details: for cells exhibiting cell surface staining with annexin V: A549, 24 hour exposure; for cells staining with annexin V and/or propidium iodide: A549, 48 hour treatment
Protocol: (§8) Annexin V binding was used as a marker for the early stages of apoptosis. A549,HCT116 and Normal Dermal Human Fibroblasts (NDHF) cells are treated separately with four compounds (CMD1, CMD2, CMD3 and CMD4) for 24 or 48 hours, stained with annexin V and compared to cells treated similarly with vehicle (DMSO). Cells are examined by fluorescence microscopy. […] Viability is assessed by the counterstain, propidium iodide. Cells detected by red fluorescence are not viable.

HCT116 = test: as above; type: cell-based, human; details: for cells exhibiting cell surface staining with annexin V: HCT116, 24 hour exposure; for cells staining with annexin V and/or propidium iodide: HCT116, 48 hour treatment
Protocol: as §8

[4] = system: Normal Dermal Human Fibroblasts (NDHF); test: as above; type: cell-based; details: NDHF cells
Protocol: as §8

[5] = system: HCT116 colon tumor cell line; test: HCT116 tumor xenograft in athymic mice, antitumor activity; type: in vivo; details: Table B5, HCT116, 50 mg/kg i.v., 34th day, seven mice
[6] = Body weight change of A549 tumor-bearing athymic mice; type: in vivo; details: ± SEM
Protocol: as §5, §6, §7

[7] = system: H1299 (human lung carcinoma cell); test: Monolayer cell growth inhibition, MTS assay; type: cell-based; details: NCI-H1299, H1299, 72 hours compound treatment, lactate salts
Text: as §1, §2, §3, §4
Lactate salts of N-hydroxy-3-[4-[[[2-(1H-indol-3-yl)-ethyl]-amino]methyl]phenyl]-2E-2-propenamide (CMD1), N-hydroxy-3-[4-[[(2-hydroxyethyl)[2-(1H-indol-3-yl)ethyl]-amino]methyl]phenyl]-2E-2-propenamide (CMD2), N-hydroxy-3-[4-[[[2-(5-methoxy-1H-indol-3-yl)-ethyl]-amino]methyl]pheny]-2E-2-propenamide (CMD3), N-hydroxy-3-[4-[[[2-(5-fluoro-1H-indol-3-yl)-ethyl]-amino]methyl]phenyl]-2E-2-propenamide (CMD4), N-hydroxy-3-[4-[[[2-(benzofur-3-yl)-ethyl]-amino]methyl]phenyl]-2E-2-propenamide (CMD5) having a purity of higher than 95% are dissolved in pure dimethylsulfoxide (DMSO) to create a stock solution. The stock solution is diluted with 5% dextrose injection, USP, just prior to dosing.

[8] = system: HCT116 colon tumor cell line; test: HCT116 tumor xenograft in athymic mice, antitumor activity; type: in vivo; details: 34th day; for Δ MEAN TUMOR VOLUME: ± SEM
Protocol: as §1, with “The A549 non-small cell” for “Cell lines H1299 (human”, “human” for “carcinoma cell) and HCT116 (colon”, “cell line is purchased” for “cell) are obtained”, “line is” for “lines are”, “HBSS” for “HBSS (Hank's Balanced Salt Solution)”
as §5, §6
(§9) Example B3 is repeated except the HCT116 colon tumor cell line is used in place of the A549 cell line. The HCT116 cell line is also obtained from American Type Culture Collection, Rockville, Md., and the cell line is free of Mycoplasma contamination and viral contamination.
(§10) Example B4 is repeated except the HCT116 colon tumor cell line is used in place of the A549 cell line. The HCT116 is also obtained from American Type Culture Collection, Rockville, Md., and the cell line is free of Mycoplasma contamination and viral contamination.

[9] = Body weight change of HCT116 tumor-bearing athymic mice; type: in vivo; details: 34th day, ± SEM
Protocol: as §5, §6, §9, §10

[10] = A549, 10 mg/kg i.v. once daily 5×/week for three weeks, 41st day
[11] = A549, 25 mg/kg i.v. once daily 5×/week for three weeks, 41st day
[12] = A549, 50 mg/kg i.v. once daily 5×/week for three weeks, 41st day
[13] = A549, 100 mg/kg i.v. once daily 5×/week for three weeks, 41st day
[14] = Table B5, HCT116, 100 mg/kg i.v.
[15] = Table B4, A549, 25 mg/kg, Example B3 repeated
[16] = Table B4, A549, 50 mg/kg, Example B3 repeated

## O=C(/C=C/c1ccc(CNCCc2c[nH]c3ccccc23)cc1)NO [CMD1, N-hydroxy-3-[4-[[[2-(1H-indol-3-yl)-ethyl]-amino]methyl]phenyl]-2E-2-propenamide]
[1]
  IC50: 30 nM
[2]; [10]
  % T/C: 32%
  Δ MEAN TUMOR VOLUME: 121 ± 27 mm^3
[2]; [11]
  % T/C: 20%
  Δ MEAN TUMOR VOLUME: 77 ± 32 mm^3
[2]; [12]
  % T/C: 15%
  Δ MEAN TUMOR VOLUME: 57 ± 10 mm^3
[2]; [13]
  % T/C: 7%
  Δ MEAN TUMOR VOLUME: 28 ± 25 mm^3
[3]
  IC50: 32 nM
A549
  cells exhibiting cell surface staining with annexin V: A small percentage
  cells staining with annexin V and/or propidium iodide: the majority
HCT116
  cells exhibiting cell surface staining with annexin V: the majority
  cells staining with annexin V and/or propidium iodide: the majority
[4]; 24 hour exposure
  annexin V staining: do not show noticeable annexin V staining
[5]
  % T/C: 25%
[5]; ± SEM
  Δ MEAN TUMOR VOLUME: 186 ± 40 mm^3
[6]; [10]
  Δ % BODY WEIGHT: +1.3 ± 0.3%
[6]; [11]
  Δ % BODY WEIGHT: −0.9 ± 0.3%
[6]; [12]
  Δ % BODY WEIGHT: −0.4 ± 0.3%
[6]; [13]
  Δ % BODY WEIGHT: +0.4 ± 0.3%
[7]
  IC50: 400 nM
[8]; [14]
  % T/C: 18%
  Δ MEAN TUMOR VOLUME: 140 ± 38 mm^3
[9]; Table B5, HCT116, 50 mg/kg i.v., seven mice
  Δ % BODY WEIGHT: −7.4 ± 0.8%
[9]; [14]
  Δ % BODY WEIGHT: −3.2 ± 0.4%

## O=C(/C=C/c1ccc(CN(CCO)CCc2c[nH]c3ccccc23)cc1)NO [CMD2, N-hydroxy-3-[4-[[(2-hydroxyethyl)[2-(1H-indol-3-yl)ethyl]-amino]methyl]phenyl]-2E-2-propenamide]
[1]
  IC50: 10 nM
[2]; [15]
  % T/C: 27%
  Δ MEAN TUMOR VOLUME: 37 ± 16 mm^3
[2]; [16]
  % T/C: 21%
  Δ MEAN TUMOR VOLUME: 29 ± 15 mm^3
[3]
  IC50: 63 nM
A549
  cells exhibiting cell surface staining with annexin V: A small percentage
  cells staining with annexin V and/or propidium iodide: the majority
HCT116
  cells exhibiting cell surface staining with annexin V: the majority
  cells staining with annexin V and/or propidium iodide: the majority
[4]; 24 hour exposure
  annexin V staining: do not show noticeable annexin V staining
[6]; [15]
  Δ % BODY WEIGHT: −4.2 ± 2.5%
[6]; [16]
  Δ % BODY WEIGHT: −2.9 ± 1.5%
[7]
  IC50: 150 nM
[8]; Table B6, HCT116, 10 mg/kg
  % T/C: 56%
  Δ MEAN TUMOR VOLUME: 422 ± 75 mm^3
[8]; Table B6, HCT116, 25 mg/kg
  % T/C: 40%
  Δ MEAN TUMOR VOLUME: 305 ± 47 mm^3
[8]; Table B6, HCT116, 50 mg/kg
  % T/C: 13%
  Δ MEAN TUMOR VOLUME: 97 ± 30 mm^3
[8]; Table B6, HCT116, 100 mg/kg
  % T/C: 17%
  Δ MEAN TUMOR VOLUME: 132 ± 30 mm^3
[9]; Table B6, HCT116, 10 mg/kg
  Δ % BODY WEIGHT: −10.2 ± 0.5%
[9]; Table B6, HCT116, 25 mg/kg
  Δ % BODY WEIGHT: −7.0 ± 0.2%
[9]; Table B6, HCT116, 50 mg/kg
  Δ % BODY WEIGHT: −7.3 ± 0.3%
[9]; Table B6, HCT116, 100 mg/kg
  Δ % BODY WEIGHT: −9.4 ± 0.4%

## Nc1ccccc1NC(=O)c1ccc(CNC(=O)OCc2cccnc2)cc1 [CMDC, reference compound]
[7]
  IC50: 6800 nM

## COc1ccc2[nH]cc(CCNCc3ccc(/C=C/C(=O)NO)cc3)c2c1 [CMD3, N-hydroxy-3-[4-[[[2-(5-methoxy-1H-indol-3-yl)-ethyl]-amino]methyl]pheny]-2E-2-propenamide]
[1]
  IC50: 30 nM
[3]
  IC50: 14 nM
A549
  cells exhibiting cell surface staining with annexin V: A small percentage
  cells staining with annexin V and/or propidium iodide: the majority
HCT116
  cells exhibiting cell surface staining with annexin V: the majority
  cells staining with annexin V and/or propidium iodide: the majority
[4]; 24 hour exposure
  annexin V staining: do not show noticeable annexin V staining
[4]; 48 hour
  annexin V staining: limited annexin V staining
[7]
  IC50: 580 nM

## O=C(/C=C/c1ccc(CNCCc2c[nH]c3ccc(F)cc23)cc1)NO [CMD4, N-hydroxy-3-[4-[[[2-(5-fluoro-1H-indol-3-yl)-ethyl]-amino]methyl]phenyl]-2E-2-propenamide]
[1]
  IC50: 30 nM
[3]
  IC50: 14 nM
A549
  cells exhibiting cell surface staining with annexin V: A small percentage
  cells staining with annexin V and/or propidium iodide: the majority
HCT116
  cells exhibiting cell surface staining with annexin V: the majority
  cells staining with annexin V and/or propidium iodide: the majority
[4]; 24 hour exposure
  annexin V staining: do not show noticeable annexin V staining
[7]
  IC50: 280 nM

## O=C(/C=C/c1ccc(CNCCc2coc3ccccc23)cc1)NO [CMD5, N-hydroxy-3-[4-[[[2-(benzofur-3-yl)-ethyl]-amino]methyl]phenyl]-2E-2-propenamide]
[1]
  IC50: 30 nM
[3]
  IC50: 16 nM
[7]
  IC50: 180 nM
